Entries after “also recorded” stand apart in the source; their conditions may differ.

The subject of assay [1] is A2Cs of WT mice with 8X-BLM-induced PF. As to the kind of experiment: Repeated bleomycin (8X-BLM) induced PF in WT mice, A2C telomere analyses. In kind it is in vivo, mouse. The procedure: (§1) To analyze the effect of BLM, mice were exposed to BLM (40 μg/20 g body weight) once per two week for 16 weeks. Control mice were exposed to normal saline. At 14th week the peptide treatment at a dosage of 30 μg/20 g body weight was initiated and continued on a daily basis for the next 14 days. At the end of the experiment, the mice were euthanized and used for the experiments.
(§2) To evaluate the effect of CSP7 against chronic BLM-induced PF, the mice were exposed to BLM (40 μg/20 g body weight) once every two weeks for 16 weeks as described elsewhere. (Tiwari et al, 2016). Control mice were exposed to normal saline. Fourteen weeks later the CSP7 at a dosage of 1.5 mg/kg body weight was administered by IP injection and continued daily basis for the next two weeks as described elsewhere. (Tiwari et al, 2016; Shetty et al, 2008b). At the end of the experiment, the mice were euthanized and lung tissues and isolated A2Cs from the extracted lung tissues were used for further analysis.
Detection of telomerase activity. Telomerase activity was detected using a PCR-based telomeric repeat amplification protocol (TRAP) method using the TRAPeze Telomerase Detection Kit (Intergen, Purchase, NY, USA). Briefly, the cells were lysed in CHAPS lysis buffer and quantified by BCA method, and equal quantity of the protein samples was combined with the reaction mix in RNase-free PCR tubes. The PCR amplification was then performed following instruction of the manufacturer. The final PCR product was loaded onto a 12.5% non-denaturing polyacrylamide gel and subjected to electrophoresis. The polyacrylamide gel was stained with ethidium bromide and documented using a gel-doc unit (Bio-Rad Laboratories). The relative quantities of telomerase activity for each sample were calculated according to the instructions provided in the kit.
Measurement of terminal restriction fragment (telomeric) length. For the determination of telomeric length, the TeloTTAGGG Telomere Length Assay Kit (Roche Diagnostics GmbH) was used. Briefly, genomic DNA was isolated and digested with Hinf1/Rsa. The digested DNA fragments were then separated by electrophoresis on agarose gel followed by Southern blot transfer. The membrane was then hybridized with a telomere specific digoxigenin (DIG)-labelled probe, incubated with anti-DIG alkaline phosphatase, and documented with chemiluminescence detection in gel-doc unit (Bio-Rad Laboratories). Telomeric length was identified by comparing with the pre-labelled molecular weight marker. The relative telomere length was calculated according to the protocol provided. In addition, relative telomere length was analyzed by qPCR analysis of the genomic DNA. (Cawthon, Nucleic Acids Res 2002, 30:e47-e47; Alder et al, Proc Natl Acad Sci USA 2015, 112:5099-5104.) The 36B4 gene was served as the control.

Assay [2] deals with A2Cs of miR-34a^fl/fl and miR-34a^cKO mice. Put plainly: Tobacco smoke exposure of miR-34a fl/fl and miR-34a cKO mice. In kind it is in vivo, mouse. The conditions noted are these: for telomere shortening (qPCR): 20 weeks TS; for telomerase enzyme activity: TS. Here is the method:
(§3) To analyze the effect of cigarette smoke, mice were exposed to passive smoke from 40 research cigarettes over a 2-hour period once (2 h) or twice (4 h) daily for 5 days/week for 20 weeks (˜90 mg/m^3 total solid particulates) using a mechanical smoking chamber (Teague Enterprises, Davis, CA). Control mice were exposed to ambient air. At the 18th week, peptide treatment at a dosage of 30 μg/20 g body weight was initiated and continued on a daily basis for the next 14 days. At the end of the experiment, the mice were euthanized and used for the experiments.
(§4) To test the effect of chronic TS exposure induced lung injury, these mice were exposed to passive TS from 40 research cigarettes over a 4 h period 5 days/week for 20 weeks (˜90 mg/m3 total solid particulates) using a mechanical smoking chamber (Teague Enterprises, Davis, CA) as described earlier. (Bhandary et al, 2015). Control mice were kept in ambient air. After sixteen weeks of daily passive TS exposure, mice with TS exposure injury were treated with CSP7 at a dosage of 1.5 mg/kg body weight daily 5 days/week for the next four weeks. These mice were continued with daily exposure of 4 h of TS during CSP7 treatment. At the end of the experiment (after 20 weeks of TS exposure), the mice were euthanized, and lungs were utilized for further analyses. To expand the local delivery options of CSP7 to directly treat the damaged lung by air-jet milling for dry powder inhalation (DPI). Mice exposed to TSE were treated with CSP7 using a rotating brush generator for 15 min daily for 7 days. Fourteen days later, BLM mice were subjected to daily inhalation of micronized CSP7 (0.05 mg/kg/d) DP through air-jet-milling for seven consecutive days using a rotating brush exposure system. The rotating brush exposure system gave a consistent minimal chamber concentration of 0.1 mg/L. In order to match dosing of DP inhalation, animal exposure times were adjusted to approximately 15 minutes and an estimated dose of 0.05 mg/kg/d or 1.00 microgram/lung was administered.
Inducible conditional knockout (miR-34a^cKO) mice lacking miR-34a expression in A2ECs were generated by crossing miR-34a^fl/fl mice with SP-C^Cre/mTmG mice (FIG. 62A). RNA from A2ECs of miR-34a^fl/fl or miR-34a^cKO mice treated with tamoxifen were analyzed for miR-34a. […] After 20 weeks, A2ECs were isolated from these mice and analyzed for changes in miR-34a. […] A2ECs from miR-34a^fl/fl and miR-34a^cKo mice were next isolated and tested the lysates for changes in p53 and PAI-1 expression, and apoptosis. PTS induced p53 and PAI-1 expression in A2ECs of miR-34a^fl/fl mice. These changes were associated increased of A2EC apoptosis and senescence. […] These mice also resisted A2ECs apoptosis or senescence (FIG. 62C).

The test system of another assay is A2Cs of PAI-1^−/− mice. Put plainly: Tobacco smoke or repeated bleomycin exposure of PAI-1-/- mice. The format is in vivo, mouse. The conditions noted are these: for IHC TRF1 or TRF2 antigen expression / telomerase enzyme activity (trapeze) / telomere length: PAI-1-/- mice; for IHC TRF1 or TRF2 antigen expression / telomerase enzyme activity (trapeze): TS; for telomere length: smoke or BLM; for p53, Acp53, S15p53, cleaved caspase-3, β-galactosidase, SIAH1/2, PNUTS, TRF1, TRF2, TERT (Western blot): 8X-BLM; for telomere length (qPCR): 20 weeks TS; for p53, Acp53, S15p53, cleaved caspase-3, β-galactosidase in AT2 cells (Western blot): CS 20 weeks. Here is the method: as §3, §1, §4, §2

Another assay has as its system AECs from COPD lungs. Put plainly: AECs from COPD lungs treated in vitro for 48 h. The format is cell-based, human.

Regarding “FTTFTVT (listed as Homo sapiens) [CSP7, heptapeptide fragment of the caveolin-1 scaffolding domain peptide CSP]”, in assay [1] (8X-BLM PF), the TERT enzyme activity result is reported as “significantly reversed”; the “TRF1, TRF2, PNUTS and TERT expression in A2Cs” value was “reversed”; the “p53, PAI-1, SIAH1/2, caspase-3 activation, β-galactosidase in A2Cs” value is recorded as “suppression”. Besides, the “IHC of lung sections for TRF2, p53, PAI-1, TRF1” value in assay [1] (8X-BLM PF (FIG. 25E)) is “restoration of TRF2 expression with reduction in p53, PAI-1 and TRF1”. Also, in assay [1] (8X-BLM PF, treated two weeks), the “telomere length of A2Cs (qPCR)” value was “improved”. Also, the “miR-34a expression in A2ECs (qRT-PCR)” value in assay [2] (WT or miR-34a^fl/fl mice, 20 weeks PTS) is given as “reduced miR-34a expression”. Further, in assay [2] (WT or miR-34a^fl/fl mice), the “telomere shortening (qPCR)” value is “protected from telomere shortening; also recorded: significant protection against TS-induced telomere shortening”. In addition, the “miR-34a expression in A2ECs” value in assay [2] (miR-34a^cKO mice, 20 weeks PTS) is reported as “minimal effect”. Further, in assay [2] (miR-34a^cKO mice), the “telomere shortening (qPCR)” value was “minimal effect” and the telomerase enzyme activity entry was “did not upregulate telomerase activity; also recorded: limited effects on baseline telomerase activity”. Further, the “p53, PAI-1, A2EC apoptosis and senescence” value in assay [2] (miR-34a^fl/fl mice, PTS) was “inhibited p53, PAI-1 and A2EC apoptosis and senescence”. The telomerase enzyme activity entry in assay [2] (miR-34a^fl/fl mice) was “significant upregulation; also recorded: reversed”. For the same substance, in the assay with A2Cs of PAI-1^−/− mice, the “IHC TRF1 or TRF2 antigen expression” value is “minimal change in TRF1 or TRF2 antigen expression”, the “telomerase enzyme activity (trapeze)” value is on record as “no significant change activity” and the telomere length entry was “no significant change in telomere length”. In the assay with A2Cs of PAI-1^−/− mice (PAI-1-deficient mice), the “p53, Acp53, S15p53, cleaved caspase-3, β-galactosidase, SIAH1/2, PNUTS, TRF1, TRF2, TERT (Western blot)” value was “little or no difference”; the “telomere length (qPCR)” value is listed as “minimal effect on telomere length”; the “p53, Acp53, S15p53, cleaved caspase-3, β-galactosidase in AT2 cells (Western blot)” value is on record as “little or no difference”. Further, the “expression of p53 in A2Cs” value in the assay on A2Cs of PAI-1^−/− mice (PAI-1-deficient mice, TS or BLM) is “minimal effect”. Further, in the assay with AECs from COPD lungs, the “CIP2A mRNA” value was “significant suppression of CIP2A mRNA”; the “MUC5AC, HDAC6, FOXA3, CAV1 and FOXA2 mRNA (qPCR)” value is “reversed by CSP7 treatment; also recorded: significantly suppressed”; the “co-localization of MUC5AC/HDAC6 and Ac-Tub/LC3 (immunofluorescence)” value is on record as “co-localization was reversed”; the “number of ciliated AECs and cilia length” value is “restored”. Moreover, the “acridine orange staining of acidic vesicles (late autophagic vacuoles)” value with AECs from COPD lungs (6 h) is reported as “reversed by CSP7; also recorded: marked reduction in red fluorescence”. Further, the “Cav1 mRNA (qPCR)” value in the assay with AECs from COPD lungs (48 h) is given as “reversed”.

As for “WGIDKAFFTTSTVTYKWFRY [CP, scrambled control peptide with the same amino acid composition as CSP, reference compound]”, in assay [1] (8X-BLM PF), the TERT enzyme activity result is recorded as “still displayed shortened telomere”; the “TRF1, TRF2, PNUTS and TERT expression in A2Cs” value was “still harbor A2Cs with shortened telomere”. The telomerase enzyme activity result in assay [2] (miR-34a^fl/fl mice) is “little effect”. Further, in the assay on A2Cs of PAI-1^−/− mice, the “IHC TRF1 or TRF2 antigen expression” value was “minimal change in TRF1 or TRF2 antigen expression”, the “telomerase enzyme activity (trapeze)” value is “no significant change activity” and the telomere length result is “no significant change in telomere length”. Besides, in the assay on A2Cs of PAI-1^−/− mice (PAI-1-deficient mice), the “p53, Acp53, S15p53, cleaved caspase-3, β-galactosidase, SIAH1/2, PNUTS, TRF1, TRF2, TERT (Western blot)” value is “little or no difference”; the “telomere length (qPCR)” value is “minimal effect on telomere length”; the “p53, Acp53, S15p53, cleaved caspase-3, β-galactosidase in AT2 cells (Western blot)” value is “little or no difference”. The “MUC5AC, HDAC6, FOXA3, CAV1 and FOXA2 mRNA (qPCR)” value in the assay with AECs from COPD lungs is “continued to exhibit elevated levels of MUC5AC, HDAC6, FOXA3, and CAV1 mRNA with low FOXA2 mRNA”.

(Values after patent publication US20240082342A1, “PEPTIDE THERAPEUTICS FOR INCREASING LUNG CELL VIABILITY” (BOARD OF REGENTS, THE UNIVERSITY OF TEXAS SYSTEM, priority 2018, published 2024).)
